System: SDF-1
Assay: Migration assay: Jurkat cells towards SDF-1 (Transwell)
Assay type: cell-based, human
Conditions: 10 μg/ml
Method: 600 μl of RPMI medium was added to the lower chambers of Transwell® transmigration plates, supplemented with 2 μg/ml of MIP3a, 100 ng/ml of SDF-1 or 10 ng/ml of MCP-1. The tested small molecule was added to the lower chambers at the indicated concentration, except in control samples. The MIP3a, SDF-1 or MCP-1 was incubated with the small molecule for 30 minutes at room temperature before the initiation of the migration assay. Following 30 minutes of incubation 2×10^5 immune cells were added to the upper chambers of the transmigration plates in a total volume of 100 μl. Cells which migrated within 3 hours to the bottom chamber of the Transwell® plates were counted using a FACScalibur™ flow cytometer.
To evaluate migration towards SDF-1, Jurkat cells were re-suspended in RPMI medium containing 1% fetal calf serum (FCS).

With `CCCCCc1cc2cc(O)cc(Oc3c(O)cc(O)cc3CCCCC)c2c(=O)o1` [BKT300] the “Inhibition of migration of Jurkat cells towards SDF-1” value (BKT300 at 78% purity) was “significantly inhibited” and the “Inhibition of migration of Jurkat cells towards SDF-1” value (BKT300 at 98% purity) was “significantly inhibited”.

— US12233057B2, “Small molecules for inhibiting chemokine activity and/or cancer cells growth” (AlonBio Ltd., priority 2015, dated 2025)
